Structures can show the parent of a compound that is named as a salt.

The assay concerns mucositis induced by acute radiation exposure of the cheek pouch. The assay is described as follows: Hamster cheek pouch model of radiation-induced oral mucositis, topical dosing, clinical scoring 0-5. The assay is classed as in vivo. The note with it: hamsters, 35 Gy on Day 0, 0.1 mL of 0.1 mg/mL aqueous solution topically three times a day for 22 days; for mucositis scores (clinical scoring 0-5) versus placebo control group: compared with solution without drug. The procedure: Hamsters were randomly assigned to treatment groups with eight (8) animals per group. Each group was treated either with a drug solution or a control, water.
Animals were dosed three times a day for 22 days. The first dose was applied on day —1. Either a solution of the drug or water alone was applied in a volume of 0.1 ml three times per day.
Mucositis was induced by acute radiation exposure of the check pouch. A single dose of radiation (35 Gy/dose) was administered to all animals on Day 0. Prior to irradiation, animals were anesthetized with an intraperiotoneal injection of sodium pentobarbital (80 mg/kg) and the left buccal pouch was everted, fixed and isolated using a lead shield.
Beginning on day 6 and continuing every other day up to day 28, the cheek pouch was photographed. On days that photographs were taken, prior to the first dosing of the day, the animals were anesthetized using an inhalation anesthetic and the left cheek pouch of each animal was rinsed vigorously with sterile water to remove residual food debris or foreign contamination and blotted dry with a gauze sponge. The appearance of the cheek pouch was scored visually by comparison to a validated photographic scale, ranging from 0 for normal to 5 for severe ulceration (clinical scoring). In descriptive terms, this scale is defined as follows: […]
A score of 1-2 represents mild stage of the disease, whereas a score of 3-5 indicates moderate to severe mucositis.

For the compound meclocycline sulfosalicylate, the “reduction in the number of animal days with scores of 3 or more, relative to the control group” value is given as “more than 75%” and the “mucositis scores (clinical scoring 0-5) versus placebo control group” value is given as “Significantly lower scores”.

Regarding `CN(C)[C@@H]1C(O)=C(C(N)=O)C(=O)[C@@]2(O)C(O)=C3C(=O)c4c(O)cccc4[C@@](C)(O)[C@H]3C[C@@H]12` [tetracycline hydrochloride], the “reduction in the number of animal days with scores of 3 or more, relative to the control group” value is given as “more than 75%” and the “mucositis scores (clinical scoring 0-5) versus placebo control group” value was “Significantly lower scores”.

These data come from patent publication US6893665B2, “Formulations for treating or preventing mucositis” (Orapharma, Inc., priority 1999, dated 2005).
